# Where two headings read alike, the source gives them in different places.
# Tests used:
# [1] = target: protein kinases in MOLT-4 cells (Homo sapiens, UniProt P41240); test: Whole cell quantitative proteomics in MOLT-4 cells; details: compared with the library; MOLT-4, 1 μM, 5 h
# Protocol: (§1) Whole cell multiplexed quantitative proteomics was employed to measure changes in abundance of the proteome in response to treatment with each of the kinase degrader molecules relative to DMSO (Table 1, Appendix I).
# (§2) Cells were treated with DMSO (biological triplicate) or degrader at indicated dose and time and cells were harvested by centrifugation. […] Precipitated protein was resuspended in 4 M Urea, 50 mM HEPES pH 7.4, followed by dilution to 1 M urea with the addition of 200 mM EPPS, pH 8. Proteins were first digested with LysC (1:50: enzyme:protein) for 12 hours at room temperature. The LysC digestion was diluted to 0.5 M Urea with 200 mM EPPS pH 8 followed by digestion with trypsin (1:50; enzyme:protein) for 6 hours at 37° C. Tandem mass tag (TMT) reagents (Thermo Fisher Scientific) were dissolved in anhydrous acetonitrile (ACN) according to manufacturer's instructions. […] The 10, 11, or 16-plex labeling reactions were performed for 1.5 hours at room temperature and the reaction quenched by the addition of hydroxylamine to a final concentration of 0.3% for 15 minutes at room temperature. The sample channels were combined at a 1:1 ratio, desalted using C18 solid phase extraction cartridges (Waters®) and analyzed by LC-MS for channel ratio comparison. Samples were then combined using the adjusted volumes determined in the channel ratio analysis and dried down in a speed vacuum. The combined sample was then resuspended in 1% formic acid, and acidified (pH 2-3) before being subjected to desalting with C18 SPE (Sep-Pak®, Waters®). Samples were then offline fractionated into 96 fractions by high pH reverse-phase HPLC (Agilent® LC1260) through an aeris peptide xb-c18 column (Phenomenex®) with mobile phase A containing 5% acetonitrile and 10 mM NH4HCO3 in LC-MS grade H2O, and mobile phase B containing 90% acetonitrile and 10 mM NH4HCO3 in LC-MS grade H2O (both pH 8.0). The 96 resulting fractions were then pooled in a non-continuous manner into 24 fractions and desalted using C18 solid phase extraction plates (SOLA®, Thermo Fisher Scientific) followed by subsequent mass spectrometry analysis.
# (§3) Data were collected using an Orbitrap Fusion™ Lumos™ mass spectrometer (Thermo Fisher Scientific, San Jose, CA, USA) coupled with a Proxeon EASY-nLC™ 1200 LC pump (Thermo Fisher Scientific) or an Orbitrap Eclipse™ Tribrid™ mass spectrometer (Thermo Fisher Scientific, San Jose, CA, USA) coupled with an UltiMate™ 3000 RSLCnano System. Peptides were separated on an EasySpray™ ES803a/ES803a.rev2 75 μm inner diameter microcapillary column (ThermoFisher Scientific).
# (§4) Data dependent MS2 spectra were acquired in the ion trap with a normalized collision energy (NCE) set at 35%, AGC target set to 1.8×10^4 and a maximum injection time of 120 ms. MS3 scans were acquired in the Orbitrap with HCD collision energy set to 55%. AGC target set to 2×10^5, maximum injection time of 150 ms, resolution at 50,000 and with a maximum synchronous precursor selection (SPS) precursors set to 10.
# (§5) Proteome Discoverer™ 2.1, 2.2 or 2.4 (Thermo Fisher Scientific) was used for .RAW file processing and controlling peptide and protein level false discovery rates, assembling proteins from peptides, and protein quantification from peptides.
# [2] = system: protein kinases in MOLT-4 cells; test: Whole cell quantitative proteomics in MOLT-4 cells; details: MOLT-4, 1 μM, 5 h
# Protocol: as §1, §2, §3, §4, §5
# [3] = system: protein kinases (human kinome); format: cell-based; details: for kinases the bifunctional compound degrades: as stated for the structure in the embodiments; for Kinase hits: kinases significantly downregulated vs DMSO (fold change cutoff −1.25, P-value<0.01), ≤8 h, 0.1-5 μM degrader, 7 cell lines; for Total no. kinase hits: number of degraded kinases per library compound
# [4] = target: protein kinases (human kinome) (Homo sapiens, UniProt P48736); format: cell-based
# Sequence of protein kinases (human kinome) (Homo sapiens, UniProt P48736) (P48736 whole entry): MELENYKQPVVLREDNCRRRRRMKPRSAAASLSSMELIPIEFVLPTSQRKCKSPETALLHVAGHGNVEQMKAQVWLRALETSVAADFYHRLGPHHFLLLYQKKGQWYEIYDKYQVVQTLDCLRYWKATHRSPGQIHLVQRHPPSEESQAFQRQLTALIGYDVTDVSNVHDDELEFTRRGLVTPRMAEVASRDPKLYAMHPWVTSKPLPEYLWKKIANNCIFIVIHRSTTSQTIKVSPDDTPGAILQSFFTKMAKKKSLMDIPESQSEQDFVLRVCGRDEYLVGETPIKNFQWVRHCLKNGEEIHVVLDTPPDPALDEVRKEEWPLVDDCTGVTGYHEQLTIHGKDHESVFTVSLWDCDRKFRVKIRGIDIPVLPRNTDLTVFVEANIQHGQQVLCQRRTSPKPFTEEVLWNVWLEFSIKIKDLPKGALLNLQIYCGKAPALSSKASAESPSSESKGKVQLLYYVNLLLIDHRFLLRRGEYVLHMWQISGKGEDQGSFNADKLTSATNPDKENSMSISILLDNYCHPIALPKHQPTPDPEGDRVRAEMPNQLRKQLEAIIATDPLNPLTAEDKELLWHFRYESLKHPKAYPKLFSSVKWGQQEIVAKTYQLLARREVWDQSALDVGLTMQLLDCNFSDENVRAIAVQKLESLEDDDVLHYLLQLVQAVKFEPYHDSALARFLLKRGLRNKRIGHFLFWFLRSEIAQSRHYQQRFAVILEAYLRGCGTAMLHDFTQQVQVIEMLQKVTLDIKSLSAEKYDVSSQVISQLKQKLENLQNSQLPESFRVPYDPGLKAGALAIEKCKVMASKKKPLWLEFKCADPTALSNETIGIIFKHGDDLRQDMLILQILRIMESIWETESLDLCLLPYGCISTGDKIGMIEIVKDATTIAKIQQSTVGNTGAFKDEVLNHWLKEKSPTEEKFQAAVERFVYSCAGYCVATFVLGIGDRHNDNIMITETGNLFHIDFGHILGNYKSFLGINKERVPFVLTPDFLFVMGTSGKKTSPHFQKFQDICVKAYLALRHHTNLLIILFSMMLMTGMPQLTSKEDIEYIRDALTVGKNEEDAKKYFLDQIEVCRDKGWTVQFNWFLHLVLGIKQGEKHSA
# [5] = target: T1, protein kinases (human kinome) (Homo sapiens, UniProt Q9UQ88); format: cell-based
# T1 sequence (Q9UQ88 1-783): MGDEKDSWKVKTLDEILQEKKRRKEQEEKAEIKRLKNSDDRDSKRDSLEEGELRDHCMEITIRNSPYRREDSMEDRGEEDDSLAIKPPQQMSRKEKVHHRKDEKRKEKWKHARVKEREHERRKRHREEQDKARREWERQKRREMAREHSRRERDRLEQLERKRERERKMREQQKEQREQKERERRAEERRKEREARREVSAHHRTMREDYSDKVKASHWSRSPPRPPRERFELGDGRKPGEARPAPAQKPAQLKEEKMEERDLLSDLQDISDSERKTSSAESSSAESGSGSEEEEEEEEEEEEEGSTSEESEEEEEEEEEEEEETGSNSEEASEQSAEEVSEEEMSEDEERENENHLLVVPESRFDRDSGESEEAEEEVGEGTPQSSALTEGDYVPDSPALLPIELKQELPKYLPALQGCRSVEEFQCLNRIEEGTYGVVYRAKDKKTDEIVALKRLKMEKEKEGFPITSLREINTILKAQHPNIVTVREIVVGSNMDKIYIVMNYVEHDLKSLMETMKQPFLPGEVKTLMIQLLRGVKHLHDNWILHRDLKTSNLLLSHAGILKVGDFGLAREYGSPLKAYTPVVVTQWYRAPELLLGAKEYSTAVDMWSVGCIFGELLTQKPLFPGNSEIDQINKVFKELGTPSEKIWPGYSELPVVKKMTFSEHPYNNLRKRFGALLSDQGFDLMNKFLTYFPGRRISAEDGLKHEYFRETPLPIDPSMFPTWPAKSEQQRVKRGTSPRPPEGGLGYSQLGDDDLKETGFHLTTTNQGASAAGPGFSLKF
# [6] = target: protein kinases (human kinome) (Homo sapiens, UniProt Q96BR1); format: cell-based
# Sequence of protein kinases (human kinome) (Homo sapiens, UniProt Q96BR1) (Q96BR1 whole entry): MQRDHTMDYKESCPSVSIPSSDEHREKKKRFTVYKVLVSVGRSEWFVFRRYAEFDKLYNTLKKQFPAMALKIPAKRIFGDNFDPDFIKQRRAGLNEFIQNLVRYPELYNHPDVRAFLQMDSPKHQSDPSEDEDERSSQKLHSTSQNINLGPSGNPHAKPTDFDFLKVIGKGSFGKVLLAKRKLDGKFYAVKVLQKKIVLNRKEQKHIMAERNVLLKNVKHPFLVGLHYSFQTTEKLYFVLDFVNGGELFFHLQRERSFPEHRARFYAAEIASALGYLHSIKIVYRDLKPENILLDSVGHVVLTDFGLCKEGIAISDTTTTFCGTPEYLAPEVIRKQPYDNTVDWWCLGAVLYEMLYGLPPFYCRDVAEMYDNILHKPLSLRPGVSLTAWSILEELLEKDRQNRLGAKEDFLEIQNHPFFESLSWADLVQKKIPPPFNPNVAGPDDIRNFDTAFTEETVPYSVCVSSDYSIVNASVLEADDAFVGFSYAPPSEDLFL
# [7] = target: protein kinases (human kinome) (Homo sapiens, UniProt P49840); format: cell-based; details: GSK3A P49840; experiment wp068
# Sequence of protein kinases (human kinome) (Homo sapiens, UniProt P49840) (P49840 whole entry): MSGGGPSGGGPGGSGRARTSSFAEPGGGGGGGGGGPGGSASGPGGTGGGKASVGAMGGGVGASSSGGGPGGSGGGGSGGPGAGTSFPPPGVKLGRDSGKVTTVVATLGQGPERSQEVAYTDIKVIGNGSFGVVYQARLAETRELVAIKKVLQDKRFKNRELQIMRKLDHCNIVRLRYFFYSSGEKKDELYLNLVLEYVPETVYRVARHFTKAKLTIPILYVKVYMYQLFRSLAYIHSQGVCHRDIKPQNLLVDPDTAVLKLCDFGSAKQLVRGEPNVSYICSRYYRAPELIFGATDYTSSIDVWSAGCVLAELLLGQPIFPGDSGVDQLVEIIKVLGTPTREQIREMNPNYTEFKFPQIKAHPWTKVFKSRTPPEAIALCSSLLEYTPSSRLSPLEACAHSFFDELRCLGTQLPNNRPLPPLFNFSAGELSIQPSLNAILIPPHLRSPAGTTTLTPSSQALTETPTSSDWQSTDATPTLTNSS
# [8] = target: extended human kinome (kinase-like proteins) (Homo sapiens, UniProt Q16875); test: Whole cell quantitative proteomics: extended kinome hits; details: Accession Q16875; experiment wp068
# Sequence of extended human kinome (kinase-like proteins) (Q16875 whole entry): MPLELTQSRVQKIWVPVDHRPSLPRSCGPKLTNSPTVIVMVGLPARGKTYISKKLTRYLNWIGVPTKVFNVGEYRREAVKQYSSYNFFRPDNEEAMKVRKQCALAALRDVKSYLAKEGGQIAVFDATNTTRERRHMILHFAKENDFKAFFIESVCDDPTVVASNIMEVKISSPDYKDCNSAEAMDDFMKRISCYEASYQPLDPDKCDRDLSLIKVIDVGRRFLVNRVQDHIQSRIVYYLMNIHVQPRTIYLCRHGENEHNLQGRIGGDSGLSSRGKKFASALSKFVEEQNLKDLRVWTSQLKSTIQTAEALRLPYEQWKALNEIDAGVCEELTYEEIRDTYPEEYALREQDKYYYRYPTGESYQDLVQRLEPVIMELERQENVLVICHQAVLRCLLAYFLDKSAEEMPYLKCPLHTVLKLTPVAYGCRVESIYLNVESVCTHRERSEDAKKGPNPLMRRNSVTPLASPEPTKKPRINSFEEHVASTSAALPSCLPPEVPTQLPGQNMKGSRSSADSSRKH
# [9] = target: protein kinases (human kinome) (Homo sapiens, UniProt P29597); format: cell-based; details: experiment wp195
# Sequence of protein kinases (human kinome) (Homo sapiens, UniProt P29597) (P29597 whole entry): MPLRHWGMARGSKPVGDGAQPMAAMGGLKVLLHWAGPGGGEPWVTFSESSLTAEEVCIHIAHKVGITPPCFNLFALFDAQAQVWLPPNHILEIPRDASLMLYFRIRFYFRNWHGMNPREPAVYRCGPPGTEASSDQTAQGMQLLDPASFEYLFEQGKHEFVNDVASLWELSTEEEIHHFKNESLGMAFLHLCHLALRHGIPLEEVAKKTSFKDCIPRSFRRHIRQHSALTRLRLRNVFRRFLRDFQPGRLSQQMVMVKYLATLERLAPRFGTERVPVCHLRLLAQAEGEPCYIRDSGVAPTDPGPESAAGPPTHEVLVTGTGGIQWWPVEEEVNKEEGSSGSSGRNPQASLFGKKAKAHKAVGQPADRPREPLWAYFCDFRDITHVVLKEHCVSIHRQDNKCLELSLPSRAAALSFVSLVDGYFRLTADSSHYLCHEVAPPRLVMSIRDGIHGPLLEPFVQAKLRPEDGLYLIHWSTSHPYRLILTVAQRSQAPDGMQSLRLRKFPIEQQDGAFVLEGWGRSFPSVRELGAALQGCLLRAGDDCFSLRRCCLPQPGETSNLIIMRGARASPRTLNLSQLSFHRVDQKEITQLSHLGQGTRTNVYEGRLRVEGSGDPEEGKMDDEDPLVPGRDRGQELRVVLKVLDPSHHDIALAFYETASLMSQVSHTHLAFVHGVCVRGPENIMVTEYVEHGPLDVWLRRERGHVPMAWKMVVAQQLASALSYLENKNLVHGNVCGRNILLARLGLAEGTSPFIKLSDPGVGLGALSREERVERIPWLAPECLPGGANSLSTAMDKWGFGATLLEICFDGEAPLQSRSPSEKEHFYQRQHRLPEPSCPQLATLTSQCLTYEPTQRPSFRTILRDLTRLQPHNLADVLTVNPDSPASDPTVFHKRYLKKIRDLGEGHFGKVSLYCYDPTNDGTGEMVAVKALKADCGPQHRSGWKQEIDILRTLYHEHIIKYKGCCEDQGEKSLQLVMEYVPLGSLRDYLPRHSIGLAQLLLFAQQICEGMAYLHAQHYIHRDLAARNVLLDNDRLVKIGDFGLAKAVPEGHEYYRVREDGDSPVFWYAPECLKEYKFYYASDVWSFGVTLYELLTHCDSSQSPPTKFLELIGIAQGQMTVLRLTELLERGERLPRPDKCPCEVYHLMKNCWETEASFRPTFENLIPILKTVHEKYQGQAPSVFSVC
# [10] = target: T2, protein kinases (human kinome) (Homo sapiens, UniProt P29323); format: cell-based
# T2 sequence (P29323 19-1055): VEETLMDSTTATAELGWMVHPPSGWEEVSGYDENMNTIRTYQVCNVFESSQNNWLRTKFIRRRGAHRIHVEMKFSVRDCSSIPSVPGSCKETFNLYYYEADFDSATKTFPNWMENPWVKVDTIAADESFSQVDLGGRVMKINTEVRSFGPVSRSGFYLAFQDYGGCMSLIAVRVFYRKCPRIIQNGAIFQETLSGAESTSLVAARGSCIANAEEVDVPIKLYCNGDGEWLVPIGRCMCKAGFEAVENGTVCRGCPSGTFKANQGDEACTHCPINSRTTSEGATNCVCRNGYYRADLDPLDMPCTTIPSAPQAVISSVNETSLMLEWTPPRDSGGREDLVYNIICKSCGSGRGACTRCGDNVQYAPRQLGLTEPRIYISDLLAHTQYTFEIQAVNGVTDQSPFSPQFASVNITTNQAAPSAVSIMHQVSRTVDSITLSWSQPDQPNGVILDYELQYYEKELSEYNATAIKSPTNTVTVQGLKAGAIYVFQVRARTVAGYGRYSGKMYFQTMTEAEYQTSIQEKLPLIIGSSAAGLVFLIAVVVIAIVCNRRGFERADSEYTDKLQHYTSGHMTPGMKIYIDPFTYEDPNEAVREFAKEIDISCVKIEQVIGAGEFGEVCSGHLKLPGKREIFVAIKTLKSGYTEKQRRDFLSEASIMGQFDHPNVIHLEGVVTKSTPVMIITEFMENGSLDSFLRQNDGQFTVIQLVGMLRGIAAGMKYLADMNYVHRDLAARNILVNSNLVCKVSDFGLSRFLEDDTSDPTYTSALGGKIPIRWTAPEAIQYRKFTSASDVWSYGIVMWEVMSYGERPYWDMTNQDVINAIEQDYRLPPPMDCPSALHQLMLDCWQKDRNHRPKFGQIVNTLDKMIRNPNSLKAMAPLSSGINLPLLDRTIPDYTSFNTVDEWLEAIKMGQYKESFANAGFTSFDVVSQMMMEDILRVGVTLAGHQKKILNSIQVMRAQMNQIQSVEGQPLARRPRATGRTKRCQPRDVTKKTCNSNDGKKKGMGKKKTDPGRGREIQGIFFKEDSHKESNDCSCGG
# [11] = target: protein kinases (human kinome) (Homo sapiens, UniProt P42684); format: cell-based
# Sequence of protein kinases (human kinome) (Homo sapiens, UniProt P42684) (P42684 whole entry): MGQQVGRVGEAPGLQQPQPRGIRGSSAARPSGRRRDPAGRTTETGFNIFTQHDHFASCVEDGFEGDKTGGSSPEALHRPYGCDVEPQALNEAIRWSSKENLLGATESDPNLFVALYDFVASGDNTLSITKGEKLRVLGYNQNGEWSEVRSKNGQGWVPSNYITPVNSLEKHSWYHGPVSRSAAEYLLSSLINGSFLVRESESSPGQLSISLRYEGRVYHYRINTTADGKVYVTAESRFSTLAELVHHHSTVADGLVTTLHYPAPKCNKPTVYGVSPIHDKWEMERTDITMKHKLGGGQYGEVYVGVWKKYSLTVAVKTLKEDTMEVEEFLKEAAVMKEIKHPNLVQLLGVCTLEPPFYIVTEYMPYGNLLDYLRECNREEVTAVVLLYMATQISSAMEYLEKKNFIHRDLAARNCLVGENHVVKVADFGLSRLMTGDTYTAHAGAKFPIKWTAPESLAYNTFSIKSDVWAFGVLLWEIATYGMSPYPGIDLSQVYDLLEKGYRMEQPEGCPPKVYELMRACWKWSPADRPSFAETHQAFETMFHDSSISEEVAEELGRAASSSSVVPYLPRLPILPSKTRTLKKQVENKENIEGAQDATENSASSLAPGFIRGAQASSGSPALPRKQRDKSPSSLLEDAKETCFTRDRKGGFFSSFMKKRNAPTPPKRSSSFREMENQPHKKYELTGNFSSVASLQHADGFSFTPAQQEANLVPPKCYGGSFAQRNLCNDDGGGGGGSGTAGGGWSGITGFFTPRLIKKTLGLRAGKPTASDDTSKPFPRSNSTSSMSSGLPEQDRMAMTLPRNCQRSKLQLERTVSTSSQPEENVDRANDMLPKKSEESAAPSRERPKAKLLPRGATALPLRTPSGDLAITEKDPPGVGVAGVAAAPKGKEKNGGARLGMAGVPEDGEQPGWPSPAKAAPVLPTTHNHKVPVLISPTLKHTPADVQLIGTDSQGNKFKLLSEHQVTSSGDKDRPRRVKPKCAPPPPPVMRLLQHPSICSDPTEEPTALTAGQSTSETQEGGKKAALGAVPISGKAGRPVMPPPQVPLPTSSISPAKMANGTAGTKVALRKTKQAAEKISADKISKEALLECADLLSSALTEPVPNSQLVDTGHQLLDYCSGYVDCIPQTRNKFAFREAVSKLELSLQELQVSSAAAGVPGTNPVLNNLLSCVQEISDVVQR
# [12] = target: protein kinases (human kinome) (Homo sapiens, UniProt Q9H0K1); format: cell-based; details: experiment wp195
# [13] = target: protein kinases in MOLT-4 cells (Homo sapiens, UniProt O14965); test: Whole cell quantitative proteomics in MOLT-4 cells; details: MOLT-4, 1 μM, 5 h; validated by immunoblotting
# Protocol: as §1, §2, §3, §4, §5
# MM1.S cells = test: CellTiter-Glo viability assay; format: cell-based, H. sapiens; details: MM.1S multiple myeloma cell line, 72 hours
# Protocol: MM1.S (purchased from ATCC) was seeded in a 96-well microplate at 10,000 cells per […] well in RPMI-1(40 media supplemented with 10% FBS and incubated with compounds (final DMSO concentration at 0.1%). Relative cell viability was measured 72 hours after drug addition using CellTiter-Glo® (Promega) according to the manufacturer's protocol. Each analysis was performed in biological triplicate.
# [14] = Experiment wp068, direction of change down
# [15] = CLK1 P49759-3, experiment wp068
structure (smiles),measurement,setting,value
"Cc1nc(Nc2ncc(C(=O)Nc3c(C)cccc3Cl)s2)cc(N2CCN(CC(=O)NCCCCNC(=O)COc3cccc4c3C(=O)N(C3CCC(=O)NC3=O)C4=O)CC2)n1 (stereo not drawn) [DB-3-291, N-(2-chloro-6-methylphenyl)-2-((6-(4-(2-((4-(2-((2-(2,6-dioxopiperidin-3-yl)-1,3-dioxoisoindolin-4-yl)oxy)acetamido)butyl)amino)-2-oxoethyl)piperazin-1-yl)-2-methylpyrimidin-4-yl)amino)thiazole-5-carboxamide]",degradation of CSK,[1],strongest degradation of CSK
same,selectivity among CSK degraders,[2],greatest selectivity
same,kinases the bifunctional compound degrades,[3],"ABL2, BLK, CSK, and WEE1"
same,Kinase hits,[3],"ABL2, BLK, CSK, WEE1"
same,Total no. kinase hits,[3],4
O=C1CCC(N2C(=O)c3cccc(NCCOCCOCCOCCOCCC(=O)Nc4cccc(CN5CCC(NC(=O)c6[nH]ncc6NC(=O)c6c(Cl)cccc6Cl)CC5)c4)c3C2=O)C(=O)N1 (stereo not drawn) [FMF.04.147.1],logFC PIK3CG (P48736),[4]; [14],−0.3581
same,logFC,"[4]; PIK3CG (P48736), experiment wp068",−0.3581
same,logFC,"[5]; CDK11A (Q9UQ88-1), experiment wp068",−0.7386
same,logFC of CDK11A (Q9UQ88-1),[5]; Experiment wp068,−0.7386
same,logFC SGK3 (Q96BR1-1),[6]; [14],−0.3389
same,logFC,"[6]; SGK3 (Q96BR1-1), experiment wp068",−0.3389
same,logFC,[7],−0.5346
same,logFC GSK3A,[7],−0.5346
same,logFC GSK3B,"[3]; Accession P49841-2, experiment wp068, direction down",−0.6218
same,logFC,"[3]; CDK9 (P50750-2) protein abundance, degrader vs DMSO, down",−0.9142
same,logFC,[3]; [15],−0.6462
same,logFC CLK1,[3]; [15],−0.6462
same,logFC CDK9 (P50750-2),[3]; Experiment wp068,−0.9142
same,logFC GSK3B,"[3]; GSK3B P49841-2, experiment wp068",−0.6218
same,logFC PFKFB3,[8],−0.4462
Cc1ncsc1-c1ccc([C@H](C)NC(=O)[C@@H]2C[C@@H](O)CN2C(=O)[C@@H](NC(=O)CCCCCCc2ccc(Nc3ncc4c(n3)-c3ccccc3NC(=O)N4)cc2)C(C)(C)C)cc1 [JWG.148],logFC TYK2 (P29597),[9]; direction of change down,−0.5187
same,logFC TYK2,"[9]; protein TYK2 (P29597), down",−0.5187
same,logFC,"[10]; EPHB2 (P29323), experiment wp195",−0.3596
same,logFC of EPHB2 (P29323),[10]; Experiment wp195,−0.3596
same,logFC,"[11]; ABL2 (P42684) protein abundance, degrader vs DMSO, down",−0.516
same,logFC ABL2 (P42684),[11]; Experiment wp195,−0.516
same,logFC of SIK2,[12]; Accession Q9H0K1,−0.455
same,logFC SIK2 (Q9H0K1),[12]; direction of change down,−0.455
"COc1cc(Nc2ncc3c(n2)-c2ccc(Cl)cc2C(c2c(F)cccc2OC)=NC3)ccc1C(=O)NCCCOCCOCCOCCCNC(=O)COc1cccc2c1C(=O)N(C1CCC(=O)NC1=O)C2=O (stereo not drawn) [dAURK-4, -((9-chloro-7-(2-fluoro-6-methoxyphenyl)-5H-benzo[c]pyrimido[4,5-e]azepin-2-yl)amino)-N-(1-((2-(2,6-dioxopiperidin-3-yl)-1,3-dioxoisoindolin-4-yl)oxy)-2-oxo-7,10,13-trioxa-3-2174 azahexadecan-16-yl)-2-methoxybenzamide]",degradation of AURKA,[13],potent and selective degradation
same,antiproliferative effects,MM1.S cells,superior antiproliferative effects over parental inhibitor alisertib
same,kinases the bifunctional compound degrades,[3],AURKA and AURKB
same,Kinase hits,[3],"AURKA, AURKB"
same,Total no. kinase hits,[3],2

# — US20240269139A1, “COMPOUNDS FOR TARGETED PROTEIN DEGRADATION OF KINASES” (DANA-FARBER CANCER INSTITUTE, INC., priority 2020, published 2024)
